Assays:
[1] = biological target: cDNA-expressed human hepatic CYP3A4 (Homo sapiens (Human), UniProt P08684); test: Measurement of CYP (IC50 of P450 CYP3A4), BFC substrate; assay type: in vitro ADME; conditions: 20 minutes
Procedure, shortened: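 cDNA-expressed human CYP3A4 supersomes in 0.1M potassium phosphate pH 7.4 with 8.3 mM MgCl2, 1.67 mM EDTA and 0.25 mM NADPH; compounds in acetonitrile (<1% final). Reaction started with 30 µM BFC, 20 min at 37. 7-Hydroxy-4-trifluoromethyl-coumarin read by fluorescence (ex 409/em 530 nm).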

[2] = test system: MV-4-11 (human, Acute Myeloid Leukemia cell line) cells; test: Cell growth inhibition assay, GI50 of MV-4-11; assay type: cell-based; conditions: Homo sapiens, MV4-11, 72 h, MV-4-11 cells
Procedure, shortened: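 MV-4-11 AML cells (5×10^4/well, IMDM with 10% FBS) treated in duplicate with serially diluted compounds for 72 hours at 37 °C. Viability read as absorbance at 490 nm after CellTiter 96 Aqueous One (MTS) addition; GI50 calculated from the concentration-response.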

cDNA-expressed human hepatic CYP3A4, sequence (P08684 whole entry): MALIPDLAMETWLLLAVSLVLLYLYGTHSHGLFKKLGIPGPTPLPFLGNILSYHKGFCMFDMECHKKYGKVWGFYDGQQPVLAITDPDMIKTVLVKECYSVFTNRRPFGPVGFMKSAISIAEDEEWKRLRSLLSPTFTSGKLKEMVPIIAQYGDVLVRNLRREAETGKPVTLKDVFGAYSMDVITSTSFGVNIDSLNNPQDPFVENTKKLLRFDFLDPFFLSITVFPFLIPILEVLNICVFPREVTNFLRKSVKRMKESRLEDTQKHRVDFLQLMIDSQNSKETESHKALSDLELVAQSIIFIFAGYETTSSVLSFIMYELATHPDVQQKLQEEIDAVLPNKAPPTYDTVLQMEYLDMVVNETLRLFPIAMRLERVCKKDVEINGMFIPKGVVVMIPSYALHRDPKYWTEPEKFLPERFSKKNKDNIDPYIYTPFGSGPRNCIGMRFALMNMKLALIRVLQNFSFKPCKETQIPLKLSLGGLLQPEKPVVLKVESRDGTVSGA

| SMILES | IC50 [1] [nM] | GI50 [2] [nM] |
| --- | --- | --- |
| C=CCN1CC(=O)N2[C@@H](Cc3ccc(O)cc3)C(=O)N(Cc3cccc4c(C(=O)N5CCC(N6CCOCC6)CC5)cn(C)c34)C[C@@H]2N1C(=O)NCc1ccccc1 [Compound E-65] | 2110 | 13 |
| C=CCN1CC(=O)N2[C@@H](Cc3ccc(O)cc3)C(=O)N(Cc3cccc4c(-c5ccc(C(=O)NN6CCN(c7ccccn7)CC6)cc5)cn(C)c34)C[C@@H]2N1C(=O)NCc1ccccc1 [Compound D-44] | > 25000 | 19.5 |
| C=CCN1CC(=O)N2[C@@H](Cc3ccc(O)cc3)C(=O)N(Cc3cccc4c(-c5ccc(C(=O)N(C)C)o5)cn(C)c34)C[C@@H]2N1C(=O)NCc1ccccc1 [Compound D-102] | 3420 | 1.6 |
| C=CCN1CC(=O)N2[C@@H](Cc3ccc(O)cc3)C(=O)N(Cc3cccc4c(-c5ccc(C(=O)Nc6ccc(N7CCOCC7)nc6)cc5)cn(C)c34)C[C@@H]2N1C(=O)NCc1ccccc1 [Compound D-12] | > 25000 | 2.1 |
| C=CCN1CC(=O)N2[C@@H](Cc3ccc(O)cc3)C(=O)N(Cc3cccc4c(C(=O)N5CCC(OC)CC5)cn(C)c34)C[C@@H]2N1C(=O)NCc1ccccc1 [Compound E-52] | 3300 | 9.2 |
| C=CCN1CC(=O)N2[C@@H](Cc3ccc(O)cc3)C(=O)N(Cc3cccc4c(-c5ccc(C(=O)Nc6ccc(OC)cc6)cc5)cn(C)c34)C[C@@H]2N1C(=O)NCc1ccccc1 [Compound D-22] | 19500 | 4.2 |
| C=CCN1CC(=O)N2[C@@H](Cc3ccc(O)cc3)C(=O)N(Cc3cccc4c(-c5ccc(NC(=O)Nc6ccc(OC)cc6)cc5)cn(C)c34)C[C@@H]2N1C(=O)NCc1ccccc1 [Compound D-76] | 9480 | 15.8 |
| C=CCN1CC(=O)N2[C@@H](Cc3ccc(O)cc3)C(=O)N(Cc3cccc4c(-c5ccc(C(=O)Nc6cccc(C(N)=O)c6)cc5)cn(C)c34)C[C@@H]2N1C(=O)NCc1ccccc1 [Compound D-15] | 16000 | 2.8 |
| C=CCN1CC(=O)N2[C@@H](Cc3ccc(O)cc3)C(=O)N(Cc3cccc4c(-c5ccc(C(=O)Nc6ccccc6)cc5)cn(C)c34)C[C@@H]2N1C(=O)NCc1ccccc1 [Compound D-17] | 7630 | 6.9 |
| C=CCN1CC(=O)N2[C@@H](Cc3ccc(O)cc3)C(=O)N(Cc3cccc4c(-c5ccc(NC(=O)N6CCOCC6)nc5)cn(C)c34)C[C@@H]2N1C(=O)NCc1ccccc1 [Compound D-88] | 10200 | 1.2 |
| C=CCN1CC(=O)N2[C@@H](Cc3ccc(O)cc3)C(=O)N(Cc3cccc4c(C(=O)N5CCN6CCN(C(=O)OC(C)(C)C)CC6C5)cn(C)c34)C[C@@H]2N1C(=O)NCc1ccccc1 (some centres unmarked) [Compound E-47] | 2200 | 13.5 |
| C=CCN1CC(=O)N2[C@@H](Cc3ccc(O)cc3)C(=O)N(Cc3cccc4c(-c5ccc(NC(=O)c6ccc(NC)cc6)cc5)cn(C)c34)C[C@@H]2N1C(=O)NCc1ccccc1 [Compound D-56] | > 25000 | 12.5 |
| C=CCN1CC(=O)N2[C@@H](Cc3ccc(O)cc3)C(=O)N(Cc3cccc4c(-c5ccc(NC(=O)NC6CCCC6)cc5)cn(C)c34)C[C@@H]2N1C(=O)NCc1ccccc1 [Compound D-79] | 7800 | 10.8 |
| C=CCN1CC(=O)N2[C@@H](Cc3ccc(O)cc3)C(=O)N(Cc3cccc4c(-c5ccc(C(=O)Nc6cccc(OC)c6)cc5)cn(C)c34)C[C@@H]2N1C(=O)NCc1ccccc1 [Compound D-21] | 6530 | 6.9 |

The next lines start with the values.

| IC50 [1] [nM] | GI50 [2] [nM] | SMILES |
| --- | --- | --- |
| 2560 | 1.5 | C=CCN1CC(=O)N2[C@@H](Cc3ccc(O)cc3)C(=O)N(Cc3cccc4c(C(=O)Nc5ccc(N6CC(N7CCC(OC)CC7)C6)nc5)cn(C)c34)C[C@@H]2N1C(=O)NCc1ccccc1 [Compound G-63] |
| 2380 | 1.4 | C=CCN1CC(=O)N2C(Cc3ccc(O)cc3)C(=O)N(Cc3cccc4c(C(=O)Nc5ccc(NCC(C)(C)C)nc5)cn(C)c34)CC2N1C(=O)NCc1ccccc1 (centres unmarked) [Compound G-22] |
| 2730 | 11.3 | C=CCN1CC(=O)N2C(CN(Cc3cccc4c(C(=O)Nc5ccc(N6CCNCC6)nc5)cn(C)c34)C(=O)[C@@H]2Cc2ccc(O)cc2)N1C(=O)NCc1ccccc1 (some centres unmarked) [Compound G-39] |
| 2090 | 9.7 | C=CCN1CC(=O)N2[C@@H](Cc3ccc(O)cc3)C(=O)N(Cc3cccc4c(-c5cnc6ccccc6c5)cn(C)c34)C[C@@H]2N1C(=O)NCc1ccccc1 [Compound H-6] |
| 19100 | 14 | C=CCN1CC(=O)N2[C@@H](Cc3ccc(O)cc3)C(=O)N(Cc3cccc4c(C(=O)Nc5ccc(OC(C)(C)C)cc5)cn(C)c34)C[C@@H]2N1C(=O)NCc1ccccc1 [Compound G-6] |
| 2210 | 0.6 | C=CCN1CC(=O)N2[C@@H](Cc3ccc(O)cc3)C(=O)N(Cc3cccc4c(C(=O)Nc5ccc(N6CCC(OC)CC6)nc5)cn(C)c34)C[C@@H]2N1C(=O)NCc1ccccc1 [Compound G-38] |
| 17200 | 2.4 | C=CCN1CC(=O)N2[C@@H](Cc3ccc(O)cc3)C(=O)N(Cc3cccc4c(C(=O)Nc5ccc(N6CCN(C7CCCC7)CC6)nc5)cn(C)c34)C[C@@H]2N1C(=O)NCc1ccccc1 [Compound G-50] |
| 3670 | 2.3 | C=CCN1CC(=O)N2[C@@H](Cc3ccc(O)cc3)C(=O)N(Cc3cccc4c(C(=O)Nc5cnc(N6CCN(C(C)C)CC6)nc5)cn(C)c34)C[C@@H]2N1C(=O)NCc1ccccc1 [Compound G-47] |
| 5730 | 1.3 | C=CCN1CC(=O)N2C(CN(Cc3cccc4c(C(=O)Nc5ccc(N6CCN(CC)CC6)nc5)cn(C)c34)C(=O)[C@@H]2Cc2ccc(O)cc2)N1C(=O)NCc1ccccc1 (some centres unmarked) [Compound G-42] |
| 6940 | 1.3 | C=CCN1CC(=O)N2C(Cc3ccc(O)cc3)C(=O)N(Cc3cccc4c(C(=O)Nc5ccc(N6CCN(CCC)CC6)nc5)cn(C)c34)CC2N1C(=O)NCc1ccccc1 (centres unmarked) [Compound G-43] |
| 4870 | 8.5 | C=CCN1CC(=O)N2[C@@H](Cc3ccc(O)cc3)C(=O)N(Cc3cccc4c(C(=O)Nc5ccc(N6CC(O)C6)nc5)cn(C)c34)C[C@@H]2N1C(=O)NCc1ccccc1 [Compound G-61] |
| 2050 | 6.9 | C=CCN1CC(=O)N2[C@@H](Cc3ccc(O)cc3)C(=O)N(Cc3cccc4c(C(=O)NCc5ccc(N(C)C)nc5)cn(C)c34)C[C@@H]2N1C(=O)NCc1ccccc1 [Compound F-47] |
| 2610 | 5.7 | C=CCN1CC(=O)N2[C@@H](Cc3ccc(O)cc3)C(=O)N(Cc3cccc4c(C(=O)Nc5ccc(OC)cc5)cn(C)c34)C[C@@H]2N1C(=O)NCc1ccccc1 [Compound G-3] |
| 6320 | 1.3 | C=CCN1CC(=O)N2[C@@H](Cc3ccc(O)cc3)C(=O)N(Cc3cccc4c(C(=O)Nc5ccc(N6CCC(N7CCN(C)CC7)CC6)nc5)cn(C)c34)C[C@@H]2N1C(=O)NCc1ccccc1 [Compound G-57] |
| 6400 | 2.2 | C=CCN1CC(=O)N2C(Cc3ccc(O)cc3)C(=O)N(Cc3cccc4c(-c5ccc(NC(=O)N6CCN(S(C)(=O)=O)CC6)nc5)cn(C)c34)CC2N1C(=O)NCc1ccccc1 (centres unmarked) [Compound G-68] |
| 2320 | 5.6 | C=CCN1CC(=O)N2C(Cc3ccc(O)cc3)C(=O)N(Cc3cccc4c(C(=O)Nc5ccc(NCCN6CCOCC6)nc5)cn(C)c34)CC2N1C(=O)NCc1ccccc1 (centres unmarked) [Compound G-28] |
| 3290 | 1.4 | C=CCN1CC(=O)N2[C@@H](Cc3ccc(O)cc3)C(=O)N(Cc3cccc4c(C(=O)Nc5ccc(N6CCC(N7CCC7)CC6)nc5)cn(C)c34)C[C@@H]2N1C(=O)NCc1ccccc1 [Compound G-54] |
| 2180 | 10.7 | C=CCN1CC(=O)N2[C@@H](Cc3ccc(O)cc3)C(=O)N(Cc3cccc4c(C(=O)NCc5ccnc(N(C)C)c5)cn(C)c34)C[C@@H]2N1C(=O)NCc1ccccc1 [Compound F-48] |
| 4100 | 1.4 | C=CCN1CC(=O)N2[C@@H](Cc3ccc(O)cc3)C(=O)N(Cc3cccc4c(C(=O)Nc5ccc(N6CC(N7CCN(C)CC7)C6)nc5)cn(C)c34)C[C@@H]2N1C(=O)NCc1ccccc1 [Compound G-62] |
| 6040 | 1.3 | C=CCN1CC(=O)N2C(Cc3ccc(O)cc3)C(=O)N(Cc3cccc4c(C(=O)Nc5ccc(N6CCN(CCO)CC6)nc5)cn(C)c34)CC2N1C(=O)NCc1ccccc1 (centres unmarked) [Compound G-44] |
| 3840 | 11.9 | C=CCN1CC(=O)N2[C@@H](Cc3ccc(O)cc3)C(=O)N(Cc3cccc4c(C(=O)NCCCOC)cn(C)c34)C[C@@H]2N1C(=O)NCc1ccccc1 [Compound F-6] |
| 2160 | 8.8 | C=CCN1CC(=O)N2C(CN(Cc3cccc4c(C(=O)Nc5ccc(OC)nc5)cn(C)c34)C(=O)[C@@H]2Cc2ccc(O)cc2)N1C(=O)NCc1ccccc1 (some centres unmarked) [Compound G-5] |
| 2370 | 1.3 | C=CCN1CC(=O)N2C(Cc3ccc(O)cc3)C(=O)N(Cc3cccc4c(C(=O)Nc5ccc(N6CCC(N7CCCCC7)CC6)nc5)cn(C)c34)CC2N1C(=O)NCc1ccccc1 (centres unmarked) [Compound G-55] |
| 2530 | 2 | C=CCN1CC(=O)N2C(Cc3ccc(O)cc3)C(=O)N(Cc3cccc4c(C(=O)Nc5ccc(NCCN6CCCCC6)nc5)cn(C)c34)CC2N1C(=O)NCc1ccccc1 (centres unmarked) [Compound G-27] |
| 2570 | 11.9 | C=CCN1CC(=O)N2C(Cc3ccc(O)cc3)C(=O)N(Cc3cccc4c(C(=O)Nc5ccc(NCCCN6CCCC6)nc5)cn(C)c34)CC2N1C(=O)NCc1ccccc1 (centres unmarked) [Compound G-32] |
| 3910 | 1.3 | C=CCN1CC(=O)N2C(CN(Cc3cccc4c(C(=O)Nc5ccc(N6CCC7(CCN(CC)C7)C6)nc5)cn(C)c34)C(=O)[C@@H]2Cc2ccc(O)cc2)N1C(=O)NCc1ccccc1 (some centres unmarked) [Compound G-65] |

— patent US8940739B2, “Compound of a reverse-turn mimetic and a production method and use therefor” (JW Pharmaceutical Corporation, priority 2010, dated 2015)
